The text below walks through data of publication PMC9578396, “Intrinsic Antibacterial Activity of Xeruborbactam In Vitro: Assessing Spectrum and Mode of Action” (Antimicrobial Agents and Chemotherapy, 2022).

Holding throughout (format): cell-based
In assay [1] the test system is Pseudomonas aeruginosa. The assay can be described thus: Broth microdilution MIC (CLSI), Pseudomonas aeruginosa. From the text: (§1) (i) Panels of engineered bacterial strains containing various combinations of porin and efflux mutations were used. The construction of all the strains used in the study is described in detail in references, [44], and [45]. (ii) KPC-producing clinical isolates and their derivatives that lost KPC plasmids were used also. These strains and their origins are described in the Table S2. (iii) Finally, KPC-producing clinical isolates enriched in strains with porin mutations were used. The mutations identified include various deletions, insertions, nonsense mutations, and decreased expression. Most of the isolates were obtained from JMI Laboratories or International Health Management Associates (IHMA); they were collected in the course of global surveillance studies.
(§2) Bacterial isolates were subjected to broth microdilution susceptibility testing, performed according to Clinical and Laboratory Standards Institute (CLSI) methods ([46]), using panels prepared in-house. […] Xeruborbactam was synthesized at Qpex Biopharma, San Diego, CA. Avibactam was purchased from eNovation Chemicals LLC, Bridgewater, NJ, USA; zidebactam was from MedKoo Biosciences, Inc., Morrisville, NC, and nacubactam was from Advanced ChemBlocks, Hayward, CA. Durlobactam was synthesized at Acme Bioscience, Palo Alto, CA, USA.

Assay [2] concerns Acinetobacter baumannii. The assay is described as follows: Broth microdilution MIC (CLSI), Acinetobacter baumannii. As to conditions: Acinetobacter baumannii.
Text: as §1, §2
On the technique in general: Dilution methods test growth across graded concentrations, often in twofold steps.

In assay [3] the test system is Klebsiella pneumoniae. The assay can be described thus: microbe, parasite or virus in culture. Conditions: for MIC90: read-out: MIC90.
Text: as §1, §2

Assay [4] deals with Escherichia coli. The assay is described as follows: Broth microdilution MIC (CLSI), Escherichia coli. As to conditions: Escherichia coli.
Text: as §1, §2

Setting [5] is: PAM1154 (oprM::Hg), xeruborbactam 0 µg/ml.
Setting [6] is: AB1007 (no beta-lactamase), xeruborbactam 0 µg/ml, read-out: MIC.
[7] abbreviates: AB1007, xeruborbactam 2 µg/ml, read-out: MIC.
Setting [8] is: AB1007, xeruborbactam 4 µg/ml, read-out: MIC.
Setting [9] is: AB1007, xeruborbactam 8 µg/ml, read-out: MIC.
[10] abbreviates: Klebsiella pneumoniae, KPC-producing clinical strains with functional OmpK36, alone.
Setting [11] is: Klebsiella pneumoniae, KPC-producing clinical strains with nonfunctional OmpK36, alone.
Setting [12] is: Klebsiella pneumoniae, KPC-producing clinical strains, all strains (n = 141), alone.

Values joined by “and” are separate entries in the source; they are usually repeats but may differ in a detail not shown here. Equal entries are not always repeated. Where two headings read alike, the source gives them in different places.

Turning to `Cn1c(N)c(NC(=O)NCCN)c[n+]1CC1=C(C(=O)O)N2C(=O)[C@@H](NC(=O)/C(=N\OC(C)(C)C(=O)[O-])c3nsc(N)n3)[C@H]2SC1` [ceftolozane], the MIC in assay [1] (setting [5]) is 0.5 µg/mL; in assay [1] (PAM1154, xeruborbactam 2 µg/ml) it was 0.25 µg/mL; in assay [1] (PAM1154, xeruborbactam 4 µg/ml), 0.25 µg/mL; in assay [1] (PAM1154, xeruborbactam 8 µg/ml), 0.125 µg/mL.
Take `C[C@@H](O)[C@H]1C(=O)N2C(C(=O)O)=C(SCCN=CN)C[C@H]12` [Imipenem]: the MIC was 0.125 µg/mL in assay [2] (setting [6]); 0.125 µg/mL in assay [2] (setting [7]); 0.03 µg/mL in assay [2] (setting [8]); 0.015 µg/mL in assay [2] (setting [9]); 1 µg/mL in assay [1] (setting [5]); 0.5 µg/mL in assay [1] (PAM1154, xeruborbactam 2 µg/ml). In addition, the MIC in assay [1] (PAM1154, xeruborbactam 4 µg/ml) turned out to be 0.25 µg/mL; in assay [1] (PAM1154, xeruborbactam 8 µg/ml), 0.125 µg/mL.
With `CCN1CCN(C(=O)N[C@@H](C(=O)N[C@@H]2C(=O)N3[C@@H]2SC(C)(C)[C@@H]3C(=O)O)c2ccccc2)C(=O)C1=O` [Piperacillin], the MIC in assay [1] (setting [5]) worked out at 0.5 µg/mL; in assay [1] (PAM1154, xeruborbactam 2 µg/ml) it was 0.125 µg/mL; in assay [1] (PAM1154, xeruborbactam 4 µg/ml), 0.125 µg/mL; in assay [1] (PAM1154, xeruborbactam 8 µg/ml) it was 0.06 µg/mL.
Take `C[C@@H](O)[C@H]1C(=O)N2C(C(=O)O)=C(SC3CN(C4=NCCS4)C3)[C@H](C)[C@H]12` [Tebipenem]: the MIC in assay [3] (KPM1026a (no beta-lactamase), xeruborbactam 0 µg/ml) turned out to be 0.03 µg/mL; in assay [3] (KPM1026a, xeruborbactam 2 µg/ml), 0.03 µg/mL; in assay [3] (KPM1026a, xeruborbactam 4 µg/ml), 0.016 µg/mL; in assay [3] (KPM1026a, xeruborbactam 8 µg/ml) it was 0.004 µg/mL.
In the case of `NC(=O)[C@@H]1CC[C@@H]2CN1C(=O)N2OS(=O)(=O)O` [Avibactam], the MIC was 16 µg/mL in assay [3] (Klebsiella pneumoniae, KPM1026a, parent, read-out: MIC); > 64 µg/mL in assay [3] (Klebsiella pneumoniae, KPM3532, TolQ::M189K); > 64 µg/mL in assay [3] (Klebsiella pneumoniae, KPM3534, TolQ::S31F); > 64 µg/mL in assay [3] (Klebsiella pneumoniae, KPM4235, TolQ::IP(183–1844)PR); > 64 µg/mL in assay [3] (Klebsiella pneumoniae, KPM4236, TolQ::TAA at aa 103); > 64 µg/mL in assay [3] (Klebsiella pneumoniae, KPM4238, TolQ::S25F). The MIC in assay [3] (Klebsiella pneumoniae, KPM4239, TolQ::S28F) is > 64 µg/mL; in assay [3] (Klebsiella pneumoniae, KPM4240, TolQ::S25Y), > 64 µg/mL; in assay [3] (Klebsiella pneumoniae, strain KPM1026a, wild type, read-out: MIC) it was 16 µg/mL; in assay [3] (Klebsiella pneumoniae, strain KPM1027, ramR, read-out: MIC), 16 µg/mL; in assay [3] (Klebsiella pneumoniae, strain KPM1171, ramR ompK36_1171, read-out: MIC) it was > 256 µg/mL; in assay [3] (Klebsiella pneumoniae, strain KPM2040, ompK36_2040, read-out: MIC), 256 µg/mL. The MIC in assay [3] (Klebsiella pneumoniae, strain KPM2600, ΔompK35) is 16 µg/mL; in assay [3] (Klebsiella pneumoniae, strain KPM2613, ΔompK35 ompK36_2040) it was 256 µg/mL; in assay [3] (Klebsiella pneumoniae, strain KPM2696, ΔacrB), 16 µg/mL; in assay [4] (strain ECM5497, wild type, read-out: MIC), 16 µg/mL; in assay [4] (strain ECM6001, ΔacrB) it was 16 µg/mL; in assay [4] (strain ECM6502, marR (AcrAB overexpression)) it was 8 µg/mL. In addition, the MIC in assay [2] (strain AB1007, wild type, read-out: MIC) is > 256 µg/mL; in assay [2] (strain ACM1013, ΔadeIJK), > 256 µg/mL; in assay [2] (strain ACM1014, ΔadeABC), > 256 µg/mL; in assay [2] (strain ACM1015, ΔadeIJK ΔadeABC) it was > 256 µg/mL; in assay [2] (strain ACM1027, adeN (AdeIJK overexpression)) it was > 256 µg/mL; in assay [2] (strain ACM1030, adeS (AdeABC overexpression)), > 256 µg/mL. For the same compound, the MIC in assay [1] (Pseudomonas aeruginosa, after inactivation of MexAB-OprM, read-out: MIC) was 128 µg/mL; in assay [1] (Pseudomonas aeruginosa, before inactivation of MexAB-OprM (wild type), read-out: MIC) it was > 256 µg/mL; in assay [1] (Pseudomonas aeruginosa, strain PAM1020, wild type, read-out: MIC) it was > 256 µg/mL; in assay [1] (Pseudomonas aeruginosa, strain PAM1032, nalB (MexAB-OprM overexpression)) it was > 256 µg/mL; in assay [1] (Pseudomonas aeruginosa, strain PAM1033, nfxB (MexCD-OprJ overexpression)), 32 µg/mL; in assay [1] (Pseudomonas aeruginosa, strain PAM1034, nfxC (MexEF-OprN overexpression)), > 256 µg/mL. Besides, the MIC in assay [1] (Pseudomonas aeruginosa, strain PAM1106, mexA::Tet) turned out to be 128 µg/mL; in assay [1] (Pseudomonas aeruginosa, strain PAM1154, oprM::Hg) it was 128 µg/mL.
As for `O=C(O)C[C@@H]1CC[C@H](NC(=O)Cc2cccs2)B(O)O1` [Vaborbactam], the “effect on beta-lactam MIC” value in assay [3] (KPM1026a, vaborbactam up to 64 μg/mL, data not shown) is given as “no reduction”. Also, the MIC50 in assay [3] (setting [10]), in assay [3] (setting [11]) and in assay [3] (setting [12]) was > 64 µg/mL each time. The MIC90 in assay [3] (setting [10]), in assay [3] (setting [11]) and in assay [3] (setting [12]) was > 64 µg/mL in each case. Also, the MIC is > 128 µg/mL in assay [3] (Klebsiella pneumoniae, KPM1271 (KPC-3; wild type), alone, read-out: MIC); > 128 µg/mL in assay [3] (Klebsiella pneumoniae, KPM1272 (KPC-3; ramR_fs), alone, read-out: MIC); > 128 µg/mL in assay [3] (Klebsiella pneumoniae, KPM1273 (KPC-3; ramR_fs ompK36_1171), alone, read-out: MIC); > 128 µg/mL in assay [3] (Klebsiella pneumoniae, KPM2067 (KPC-3; ompK36_fs), alone, read-out: MIC); > 128 µg/mL in assay [3] (Klebsiella pneumoniae, KPM2601 (KPC-3; ΔompK35), alone); > 128 µg/mL in assay [3] (Klebsiella pneumoniae, KPM2631 (KPC-3; ompK36_fs ΔompK35), alone).
With `CC1(C)[C@H](C(=O)O)N2C(=O)C[C@H]2S1(=O)=O` [Sulbactam], the MIC was found to be 2 µg/mL in assay [2] (setting [6]), 2 µg/mL in assay [2] (setting [7]), 2 µg/mL in assay [2] (setting [8]) and 0.25 µg/mL in assay [2] (setting [9]).
Turning to `CC(C)(O/N=C(\C(=O)N[C@@H]1C(=O)N2C(C(=O)[O-])=C(C[n+]3ccccc3)CS[C@H]12)c1csc(N)n1)C(=O)O` [Ceftazidime], the MIC in assay [3] (Klebsiella pneumoniae, BAA2814) is 512 µg/mL; in assay [1] (setting [5]) it was 1 µg/mL; in assay [1] (PAM1154, xeruborbactam 2 µg/ml), 0.25 µg/mL; in assay [1] (PAM1154, xeruborbactam 4 µg/ml), 0.25 µg/mL; in assay [1] (PAM1154, xeruborbactam 8 µg/ml) it was 0.25 µg/mL.
As for `Nc1nc(/C(=C/CC(=O)O)C(=O)N[C@@H]2C(=O)N3C(C(=O)O)=CCS[C@H]23)cs1` [Ceftibuten], the “fold decrease compared to MIC of antibiotic alone” value in assay [3] is 0.015 (4) fold and 0.008 (8) fold; in assay [3] (KPM3532 (TolQ::M189K), with xeruborbactam at 4 μg/mL) it was 2 fold; in assay [3] (KPM3532 (TolQ::M189K), with xeruborbactam at 8 μg/mL), 2 fold; in assay [3] (KPM3534 (TolQ::S31F), with xeruborbactam at 4 μg/mL) it was 2 fold; in assay [3] (KPM3534 (TolQ::S31F), with xeruborbactam at 8 μg/mL), 4 fold. For the same compound, the MIC came out at 0.06 µg/mL in assay [3] (Klebsiella pneumoniae); 0.125 µg/mL in assay [3] (Klebsiella pneumoniae, KPM3532 (TolQ::M189K), alone); 0.125 µg/mL in assay [3] (Klebsiella pneumoniae, KPM3534 (TolQ::S31F), alone).
On to `CC1=C(C(=O)O)N2C(=O)[C@@H](NC(=O)[C@H](N)c3ccccc3)[C@H]2SC1` [cephalexin], for which the MIC in assay [3] (Klebsiella pneumoniae) was found to be 128 µg/mL.
